Experimental data published in US20260116874A1, “HETEROAROMATIC INDOLESULFONAMIDES” (SEED Therapeutics, Inc., priority 2023, published 2026).
Converted amounts (≈) assume the structure as drawn. Where two headings read alike, the source gives them in different places.

Tests used:
[1] = Telencephalon concentrations after oral administration; assay type: in vivo, female BALB/c mice; details: for AUC(0-t) / Cmax: mouse, 20 mg/kg, telencephalon, female BALB/c mice, Table 8
[2] = system: HCT116 colorectal cells; assay: Cell viability assay (CellTiter-Glo) in HCT116 cells; assay type: cell-based; details: Homo sapiens
Method: HCT116 colorectal cells were used in these experiments. HCT116 cells were obtained from ATCC. The CellTiter-Glo® Luminescent Cell Viability Assay Reagent was obtained from Promega.
Into a 96-well plate, 3000 HCT116 cells were seeded with 100 μL of media (McCoy's 5A Medium supplemented with 10% FBS, 100 units penicillin, and 100 μg streptomycin per mL) 24h before the experiment. For compound treatment, the liquid handling system-Pico machine was used to prepare all the compounds. Each master plate contained serial dilution of 2 compounds, including the control compound E7820. 10 mM compound stock was added to each well of the assay plate to give final concentrations of […], 0.003, 0.002 and 0 μM. Each concentration was tested in triplicate. After 72h, cell viability was determined using CellTiter-Glo Luminescent Cell Viability Assay Reagent following the manufacturer's recommended protocol. Briefly, equilibrate the assay plate and its contents at room temperature for approximately 30 minutes. 100 μL of CellTiter-Glo reagent was added to each well of the assay plate and the contents were mixed for 2 minutes at 500 rpm on an orbital shaker to induce cell lysis (Fisherbrand). The plate was incubated at room temperature for 10 minutes to stabilize luminescent signal. Then the plate was immediately placed in a plate reader (PerkinElmer Multimode Plate Reader Envision2105) and the luminescence signal (0.5 second per well integration time) was determined. IC50 values were calculated using Graphpad Prism 9 software.
Cell viability assays were performed to compare the potency of Compound 1 to Compound 143.

[3] = General solubility protocol (PBS, pH 7.4); assay type: physicochemical; details: PBS buffer, aqueous buffer, kinetic from dmso stock, pH 7.4, 25° C.
Method: Into a 96-well rack, 15 μL of stock solution (10 mM) of each sample was placed. Into each vial of a cap-less Solubility Sample plate 485 μL of buffer was added. The assay was performed in duplicate. To each vial one stir stick was added and each vial was sealed using a molded PTFE/Silicone plug. The Solubility Sample plate was then transferred to an Eppendorf Thermomixer Comfort plate shaker and shake at 25° C. at 1100 RPM for 2 hours. […] Using a vacuum manifold, all the samples were filtered. An aliquot of 5 μL was taken from the filtrate and 5 μL blank DMSO followed by addition of 490 μL of a mixture of H2O and acetonitrile containing an internal standard (1:1). The dilution factor may be changed according to the solubility value and the LC/MS signal response.

[4] = HCT-116, 72h, CellTiter-Glo, read-out: HCT116 Assay (IC50)
[5] = HCT-116, FIG. 5, read-out: IC50 for inhibiting cell growth in HCT116 colorectal cells

| SMILES | increase in telencephalon AUC compared to Compound 1 ([1]; compared to Compound 1) | AUC(0-t) [1] | Cmax [1] | IC50 [2, 4] | IC50 [2, 5] | increase in telencephalon AUC compared to E7820 ([1]; compared to E7820) | solubility at 2 h [3] |
| --- | --- | --- | --- | --- | --- | --- | --- |
| [2H]C([2H])([2H])c1ncc(S(=O)(=O)Nc2ccc(C)c3c(C#N)c[nH]c23)s1 [Compound 143, N-(3-cyano-4-methyl-1H-indol-7-yl)-2-(methyl-d3)thiazole-5-sulfonamide] | 2.5 fold | 2060 ng·h/mL | 373 ng/mL | < 0.5 µM | 0.255 µM |  |  |
| Cc1ncc(S(=O)(=O)Nc2ccc(C)c3c(C#N)c[nH]c23)s1 [Compound 1, N-(3-cyano-4-methyl-1H-indol-7-yl)-2-methyl-thiazole-5-sulfonamide] |  | 774 ng·h/mL | 193 ng/mL | < 0.5 µM | 0.259 µM | 2 fold | 51.5 µM (≈ 17.1 µg/mL) |
| Cc1ccc(NS(=O)(=O)c2cccc(C#N)c2)c2[nH]cc(C#N)c12 [Compound E7820, E7820, reference compound] |  |  |  |  |  |  | 80.7 µM (≈ 27.2 µg/mL) |
